Data published in US7063946B2, “Methods, reagents, kits and apparatus for protein function analysis” (Meso Scale Technologies, LLC., priority 2001, dated 2006).
Where a SMILES comes first, the peptide text is derived from it.

Assays:
[1] = tested on: tyrosine kinases reported to be the target of each inhibitor; details: read-out: reported IC50 concentration (1× concentration); for the kinase reported to be the target of the inhibitor; cited from earlier work
EphB4 = target: T1, EphB4 (Mus musculus, UniProt P54761); assay: Kinase inhibitor profiling, autophosphorylation; type: biochemical
T1 construct: specificity data for proteins generated from a library of eighteen full-length clones; host or cells: rabbit reticulocyte lysate, TnT coupled in vitro transcription/translation (cell-free)
T1 sequence (P54761 16-987): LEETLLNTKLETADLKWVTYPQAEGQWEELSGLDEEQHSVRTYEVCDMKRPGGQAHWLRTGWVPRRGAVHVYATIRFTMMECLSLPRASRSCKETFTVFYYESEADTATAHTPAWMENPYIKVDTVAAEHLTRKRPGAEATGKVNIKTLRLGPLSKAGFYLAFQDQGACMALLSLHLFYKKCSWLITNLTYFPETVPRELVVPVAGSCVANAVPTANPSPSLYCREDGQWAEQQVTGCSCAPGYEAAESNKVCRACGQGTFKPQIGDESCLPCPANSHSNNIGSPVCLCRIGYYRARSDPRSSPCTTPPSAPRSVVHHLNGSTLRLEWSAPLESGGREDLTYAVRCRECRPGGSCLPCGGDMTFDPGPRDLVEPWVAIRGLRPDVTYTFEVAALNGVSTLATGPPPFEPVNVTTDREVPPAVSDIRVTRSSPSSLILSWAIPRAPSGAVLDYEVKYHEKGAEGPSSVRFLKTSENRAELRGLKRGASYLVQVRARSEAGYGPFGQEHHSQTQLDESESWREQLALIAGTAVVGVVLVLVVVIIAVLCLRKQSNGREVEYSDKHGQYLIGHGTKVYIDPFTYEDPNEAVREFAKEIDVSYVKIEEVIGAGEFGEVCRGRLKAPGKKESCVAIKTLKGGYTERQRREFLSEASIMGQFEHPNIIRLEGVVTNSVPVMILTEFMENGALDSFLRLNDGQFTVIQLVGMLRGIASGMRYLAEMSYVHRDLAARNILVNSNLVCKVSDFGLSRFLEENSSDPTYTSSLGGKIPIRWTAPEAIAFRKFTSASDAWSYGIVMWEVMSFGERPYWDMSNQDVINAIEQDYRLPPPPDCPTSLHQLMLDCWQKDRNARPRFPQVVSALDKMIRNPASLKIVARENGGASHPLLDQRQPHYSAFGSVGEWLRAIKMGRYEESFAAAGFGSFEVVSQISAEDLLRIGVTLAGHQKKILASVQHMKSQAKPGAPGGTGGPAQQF
Method: Proteins were produced from DNA plasmids of Mock Luciferase, Promega, tyrosine kinase clone Spleen Tyrosine kinase (SYK, IMAGE ID# 3870426) and Eph receptor-A7 (EphA7, IMAGE ID# 3991628) (Incyte Genomics, CA) and immobilized on streptavidin or avidin coated NPT-IPR plates as described in the Example 7. To promote autophosphorylation in these immobilized and purified proteins, Mn++ ions were added in a 50 μl reaction containing 5 mM MgCl2, 5 mM MnCl2, 100 μM ATP, 25 mM Tris-HCl buffer pH 7.4, 0.05 mM Na3VO4, 0.004% TritonX-100, 2 mM DTT and EDTA-free protease inhibitor (Roche Molecular Biochemicals). This mixture was incubated with shaking at room temperature overnight to allow autophosphorylation. Following this incubation, wells were washed 2 times with TT-buffer and 2 times with water. Following this step, 50 ng Sulfo-TAG labeled anti-phosphotyrosine in buffer containing 25 mM Tris-HCl buffer pH 7.4, 5 mM MgCl2, 0.05 mM Na3VO4, 0.004% TritonX-100, 2 mM DTT and 0.05% IgG in a final volume of 50 μl was added followed by incubation at room temperature for 45 min. The unbound reagents were removed by one time washing with water, and the TAG label was detected in presence of 150 μl IPR assay buffer (0.4 mM Gly—Gly buffer, pH 7.8, 1 mM EDTA, 0.1 M TPA). The ECL signals were measured using an imaging plate reader.
Proteins were produced using 100 ng of plasmid DNA Mock (Luciferase, Promega) or tyrosine kinases (Fert2 IMAGE ID # 4485050, FGFR1 IMAGE ID # 4037899, Fgfr2 IMAGE ID # 2654352, Src IMAGE ID # 3156400, BMX IMAGE ID # 3919253, LCK IMAGE ID # 4191610, Epha7 IMAGE ID # 3991628, Ephb4 IMAGE ID # 4013934, Tek IMAGE ID # 3482498, HCK IMAGE ID # 4778819, BTK IMAGE ID # 4478463, CSK IMAGE ID # 4398416, SYK IMAGE ID # 3870426, FGR IMAGE ID # 4419973, PTK2B IMAGE ID # 4339456, FRK(IMAGE ID # 4515877, Kit IMAGE ID # 2644960, Fgfr-4 IMAGE ID # 4239139, NTRK3 IMAGE ID # 4181574, Kdr IMAGE ID # 4238984, Incyte Genomics, CA) and immobilized on SA or avidin coated NPT-IPR plates as described in previous examples. The unbound components of the translation reaction (including any endogenous kinases) were removed by 3 washes with TT-buffer (25 mM Tris-HCl buffer pH 7.4 and 0.004% Triton), two five minutes washes with high-salt wash buffer (25 mM Tris-HCl buffer pH 7.4, 0.004% Triton, 1M NaCl and 5 mM DTT) and 3 washes with TT-buffer. […] The mixture was incubated at room temperature for 10 mm before starting the kinase reaction by adding 25 μl of 200 μM ATP in buffer A. This mixture was incubated with intermittent shaking at room temperature for 2 hours to overnight to allow (a) phosphorylation of the pEY substrate and (b) autophosphorylation of the immobilized kinases. Autophosphorylation and phosphorylation of the pEY was measured as described in Examples 7 and 8.
The ECL signal in control wells produced by tyrosine kinases was compared to the wells containing inhibitor compounds. The signal produced from Mock was negligible.

[2] = tested on: N-end rule pathway ubiquitylation in reticulocyte lysate; assay: ECL ubiquitylation assay using Sulfo-TAG-labeled streptavidin and IPR plate coated with FK2 antibody; type: biochemical, rabbit; details: RGS4 plasmid; for fold reduction of the RGS4 ECL signal in the presence of dipeptide inhibitor: 1 mM dipeptide; for IPR readings, Experiment 1 / IPR readings, Experiment 2: 1 mM dipeptide inhibitor with 50 μM bestatin
Method: Binding Buffer 2 (BB2) refers to 25 mM Tris-HCl buffer pH 7.4 containing 100 mM NaCl, 0.05 mM Na3VO4, 0.004% TritonX-100, 2 mM DTT and protease inhibitors (protease inhibitor cocktail, EDTA free, Roche Applied Science). Proteins were produced by coupled transcription/translation using TnT reaction mixes (Promega Corp, WI). The TNT Quick coupled transcription-translation system (Promega) contains rabbit reticulocyte lysate pre-mixed with most of the reaction components necessary to carry out transcription and translation in vitro (TNT mix), including all the amino acids except methionine. Unless otherwise noted, biotin-labeled in vitro translated proteins were produced in reaction mixtures that contained 8–30 μg/ml of a selected plasmid encoding protein of interest, 5 μl of TNT T7 Quick reticulocyte lysate mix (Promega Corp, WI) or TnT SP6 Quick Coupled Transcription/Translation System (Promega Corp, WI), 20 μM methionine, 50 μM MG-132 (Calbiochem, proteasome inhibitor to inhibit degradation of ubiquitylated proteins by proteasome) and 20 μg/ml biotinylated Lys-tRNA (transcend tRNA, Promega). The reactions were allowed to proceed for 20–90 min at 30° C. The reactions were stopped by the addition of BB1 supplemented with 20 mM AMP-PNP (Sigma, a non-hydrolyzable ATP analog), 20 mM N-ethylmaleimide (Sigma, an irreversible inhibitor of deubiquitylating enzymes) or, alternatively, by the addition of BB2. BB1 was used in screens involving the ubiquitination pathway. BB2 was used for other assay formats. The produced proteins were used in the assays of interest with or without further purification.
Transcription-translation reaction mixtures were prepared as described in the Example 1 except that no labeled ubiquitin was added. Some reactions also contained 1 mM dipeptide inhibitor of the N-end rule pathway (either Arg-β-Ala, or Trp-Ala) together with 50 μM bestatin as indicated (Table 2). The reaction was allowed to proceed for 20 min at 30° C. Then 1 μl of the reaction was mixed with 50 μl of BB1 supplemented with 20 mM AMP-PNP, 20 mM N-ethylmaleimide, and 2 μg/ml Sulfo-TAG-labeled streptavidin in a well of an IPR plate coated with an anti-ubiquitin antibody (FK2 antibody, Affiniti). […] In a typical assay the presence of RGS4-encoding plasmid produced a 30–100 fold higher ECL signal compared to the empty vector (FIG. 2, Table 2). This signal was reduced 3–4 fold in the presence of Arg-β-Ala (a type 1 inhibitor of the N-end rule pathway), but not in the presence of Trp-Ala (a type 2 inhibitor of the N-end rule pathway) in agreement with the previous report that RGS4 is a type 1 N-end rule substrate in reticulocyte lysates (Davydov and Varshavsky, 2000, J. Biol. Chem., 275:22931–22941). In the same assay RGS4 produced 3–5 fold higher ECL signal compared to RGS4C2V, when the same amounts of the corresponding plasmids were added to the reaction mixtures (Table 2).

[3] = tested on: N-end rule pathway ubiquitylation in reticulocyte lysates; assay: ECL ubiquitylation assay of EST clone proteins, FK2 antibody coated IPR plate; type: biochemical, rabbit
Method: The following EST clones in bacteria were obtained: IMAGE ID #, 3446518, 3446518, 3446518, 3914731 (RGS4), 3914731 (RGS4), 3914731 (RGS4) (Incyte, Palo Alto). Bacteria containing EST clones were grown in 2 ml LB with 50 μg/ml Amp, and DNA was isolated using QIAprep Spin Miniprep Kit (Qiagen). DNA yield was 5–20 μg.
Proteins were prepared from the EST clones in transcription-translation reaction mixtures (total volume 12.5 uL) as described in the Materials and Methods except for the addition of 1 μM Ub aldehyde (Calbiochem). Then 1 μl of the reaction product was mixed with 50 μl of BB1 supplemented with 20 mM AMP-PNP, 20 mM N-ethylmaleimide and 2 μg/ml Sulfo-TAG-labeled streptavidin in to each well of an IPR plate coated with FK2 antibody.
As previously reported, RGS4 is a substrate of the N-end rule-dependent ubiquitylation in reticulocyte lysates (Davydov and Varshavsky, 2000, J. Biol. Chem., 275:22931–22941). To determine if the protein produced from clone 3446518 was similarly ubiquitylated through the N-end rule pathway, the ECL ubiquitylation assay was performed in the presence of dipeptide inhibitors Arg-β-Ala (type 1 inhibitor of the N-end rule pathway), or Trp-Ala (type 2 inhibitor of the same pathway). As was shown on FIG. 2, the RGS4 signal was reduced 3–4 fold in the presence of Arg-β-Ala (a type 1 inhibitor of the N-end rule pathway), but not in the presence of Trp-Ala (a type 2 inhibitor of the N-end rule pathway) in agreement with the previous report that RGS4 is a type 1 N-end rule substrate in reticulocyte lysates (Davydov and Varshavsky, 2000, J. Biol. Chem., 275:22931–22941). In contrast, the dipeptides had little effect on the assay signal from clone 3446518 (FIG. 2). Thus, a different pathway of the ubiquitin system mediates ubiquitylation of the protein produced from clone 3446518.

[4] = clone 3446518 in the presence of dipeptide inhibitor
[5] = clone 3914731 (RGS4) in the presence of dipeptide inhibitor

Structure (SMILES)	IC50 [1] [nM]	Inhibition specificity towards Autophosphorylation at 10X IC50, Ephb4 (EphB4)	fold reduction of the RGS4 ECL signal in the presence of dipeptide inhibitor [2]	IPR readings, Experiment 1 [2]	IPR readings, Experiment 2 [2]	ECL readings, Experiment 1 [3, 4]	ECL readings, Experiment 2 [3, 4]	ECL readings, Experiment 3 [3, 4]	ECL readings, Experiment 1 [3, 5]	ECL readings, Experiment 2 [3, 5]	ECL readings, Experiment 3 [3, 5]	fold reduction of the RGS4 signal in the presence of dipeptide inhibitor ([3]; RGS4)
N#C/C(=C\c1ccc(O)c(O)c1)C(=O)c1ccc(O)c(O)c1 [AG-538]	60	L (low inhibition (“L”=between 50–75% of the activity remaining))										
C[C@H](NC(=O)[C@@H](N)Cc1c[nH]c2ccccc12)C(=O)O [Trp-Ala] (H-Trp-Ala-OH)			not	19196	19268	11249	11550	11464	41229	40401	38552	
N=C(N)NCCC[C@H](N)C(=O)NCCC(=O)O [Arg-β-Ala]			3–4 fold	6224	6184	10484	10829	9665	15074	15016	14555	3–4 fold
